Laboratory results published in patent US20180125898A1, “MARINE LECITHIN PREPARATIONS WITH ENHANCED OXIDATION RESISTANCE” (AKER BIOMARINE ANTARCTIC AS, priority 2014, published 2018).

Experiment: Gastric model: incubation in simulated gastric fluid (SGF), LOOH (FOX assay) and MDA, oxidation resistance score
Assay type: physicochemical
Conditions: conventional krill oil with high TMAO, three concentrations of Astaxanthin (increased more than 10 fold), 180 minutes
Experimental: Hydroperoxide level was tested by FOX analysis. Measurements were conducted at 562 nm, the absorbance of the Ferric-Xylenol Orange Complex. (Gay 1999).
Malondialdehyde (MDA) level was tested by modified TBARS test. The thiobarbituric acid-MDA adduct was quantified by HPLC (Fenaille 2001) or spectrophotometer.
Marine lecithin preparations according to the invention and conventional marine lecithins were incubated while shaken in simulated gastric fluid (SGF) which contains 2 mg/ml NaCl, 3.2 mg/ml HCl 37%, and 7 mg/ml Pepsine and with 200 μM Ascorbic acid and 50 μM FeCl3 as oxidation catalysts, at 37° C. for 180 min. The final concentration of the oils was 10 mg/ml. Peroxidation markers hydroperoxide (LOOH, by Ferric-Xylenol Orange Complex—FOX assay) and malondialdehyde (MDA-TBA2 HPLC analysis) were analyzed following 180 minutes of incubation in the gastric model.
In order to rank the oils according to their resistance to oxidation in gastric model, a score scale was developed. […]
Conventional krill oil, containing high concentration of TMAO, was enriched with three concentrations of Astaxanthin and incubated in simulated gastric fluid (SGF) as described in Example 3. Hydroperoxide as peroxidation marker (LOOH, by Ferric-Xylenol Orange Complex—FOX assay—see method above) was analyzed following 180 minutes. […]

Structure (SMILES): CC1=C(/C=C/C(C)=C/C=C/C(C)=C/C=C/C=C(C)/C=C/C=C(C)/C=C/C2=C(C)C(=O)[C@@H](O)CC2(C)C)C(C)(C)C[C@H](O)C1=O [Astaxanthin]
- change in LOOH levels by Astaxanthin enrichment: only minimal change in LOOH levels
